According to patent US6559339B1, “Method for crystallizing carboxylic acid” (Rhodia Fiber & Resin Intermediates, priority 1998, dated 2003):
Each block holds one compound with its values, some of them ahead of it.

Assay: heating test: absorbance at 454 nm of ammonium adipate solutions after heating the adipic acid batches
Format: physicochemical
Details: 50 g heated to 215° C. for 205 min, then placed in 415 ml aqueous 5% ammonia solution, reference adipic acid (A) = 1
Protocol: The adipic acid batches (A) and (B) are subjected to a heating test. This test consists in heating 50 g of each batch to 215° C. for 205 min and then placing each of them in 415 ml of aqueous 5% ammonia solution. The absorbence at 454 nm of the ammonium adipate solutions obtained is then measured.
The results below are obtained, expressed as relative absorbences, the reference adipic acid (A) representing the value 1:
This test consists in heating 50 g of each batch to 215° C. for 205 min and then placing each of them in 415 ml of aqueous 5% ammonia solution.
The absorbance at 454 nm of the ammonium adipate solutions obtained is then measured.
The following results are obtained, expressed as relative absorbances, the reference adipic acid (A) representing the value 1: […]

Relative absorbance at 454 nm (listed as D): 0.2
Compound: O=C(O)CCCCC(=O)O [adipic acid (D), adipic acid]

Relative absorbance at 454 nm (listed as E): 0.5
Compound: O=C(O)CCCCC(=O)O [adipic acid (E), adipic acid]

The next lines start with the compound.

Compound: O=C(O)CCCCC(=O)O [adipic acid (A), adipic acid, reference compound]
Relative absorbance at 454 nm: 1
relative absorbence at 454 nm: 1

Compound: O=C(O)CCCCC(=O)O [adipic acid (B), adipic acid]
relative absorbence at 454 nm: 0.25

Compound: O=C(O)CCCCC(=O)O [adipic acid (C), adipic acid]
Relative absorbance at 454 nm (listed as C): 0.3
